“And” between values parts separate entries of the source, which are not always exact repeats. Identical values can stand only once. Like-named read-outs stand apart in the source and are kept apart here.
Columns and labels:
[1] = Intensive PK, non-compartmental analysis and dose proportionality; format: in vivo, HIV-1-infected adults
Description: Due to the EFV component of the blinded drug regimens, administration of study drug required both morning and evening dosing,12 hours apart. […] All bioanalytical analyses were conducted by PPD® Laboratories using validated high-performance liquid chromatography/mass spectroscopy assays. Intensive plasma GSK3532795 concentrations were analyzed by non-compartmental analysis using the actual sampling times in WinNonlin version 6.3.0 (Pharsight, St. Louis, Missouri, USA). […] To assess the dose proportionality of GSK3532795 when co-administered with TDF/FTC, a mixed-effect model with log-transformed dose as the fixed effect and each participant as the random effect was used to fit a power model in SAS version 9.1.3.

[2] = ref protocol Section 1.4.1.2, cited from earlier work
CYPs = system: CYPs; parameters: method as in protocol Section 1.4.1.2; details: ref protocol Section 1.4.1.2; cited from earlier work
HIV-1 [3] = assay: Phase IIb study 205891: plasma HIV-1 RNA response at Week 24 (FDA snapshot, observed); format: in vivo, HIV-1-infected adults; details: Week 24, mITT; GSK3532795: range across 60, 120, 180 mg arms; EFV 600 mg; each + TDF/FTC
Description: The primary endpoint was determination of the proportion of participants with plasma HIV-1 RNA <40 copies/mL at Week 24 after treatment with GSK3532795 or efavirenz (EFV).
205891 was a Phase IIb, randomized, active-controlled, double-blind trial performed at 58 sites in 12 countries across South America, North America, South Africa, and Europe. Participants were randomized 1:1:1:1 to one of four treatment arms; GSK3532795 at doses of 60 mg, 120 mg or 180 mg once daily (QD), and one reference arm with EFV at a dose of 600 mg QD, each given in combination with TDF/FTC 300/200 mg QD.
Participants attended study visits at screening, on Day 1, and once every 4 weeks from Week 4 to Week 24 (telephonic visits were conducted at Week 20). Participants were expected to continue treatment, then, through Week 96, with visit intervals every 8–12 weeks. A post-dose safety follow-up visit was also conducted 12 weeks after treatment discontinuation. Plasma HIV-1 RNA levels were quantified by the Abbott RealTime HIV-1 assay.
The FDA-defined snapshot algorithm was used for primary endpoint efficacy assessment, using the last plasma HIV-1 RNA value in the pre-defined Week 24 visit window (± 6 weeks) to determine response. The modified intent-to-treat (mITT) population consisted of participants who received at least one dose of GSK3532795 or EFV. […]

[4] = parameters: method as in Study AI468041; details: BMS-955176 80 mg SDD suspension with combined oral contraceptive; ref Study AI468041; cited from earlier work
[5] = parameters: method as in Study AI468034; details: 120 mg MC tablet; ref Study AI468034; cited from earlier work
[6] = system: reverse transcriptase (RT), protease, and integrase inhibitor-resistant viruses; details: cited from earlier work
HIV-1 clinical isolates = details: cited from earlier work
[7] = parameters: method as in protocol Section 1.4.1.2; details: local lymph node assay in the mouse; ref protocol Section 1.4.1.2; cited from earlier work
cytochrome P450 (CYP)3A4 = system: cytochrome P450 (CYP)3A4; parameters: method as in protocol Section 1.4.1.2; details: ref protocol Section 1.4.1.2; cited from earlier work
[8] = parameters: method as in protocol Section 1.4.1.2; details: 100% human serum; ref protocol Section 1.4.1.2; listed as BMS-955176; cited from earlier work
P-gp = system: P-gp; parameters: method as in protocol Section 1.4.1.2; details: ref protocol Section 1.4.1.2; cited from earlier work
CYP1A2, CYP2B6, CYP3A4 = system: CYP1A2, CYP2B6, CYP3A4; parameters: method as in protocol Section 1.4.1.2; details: ref protocol Section 1.4.1.2; cited from earlier work
[9] = parameters: method as in protocol Section 1.4.1.2; details: ref protocol Section 1.4.1.2; cited from earlier work
HIV-1 [10] = details: 40% HS supplemented with additional human serum albumin; ref protocol Section 1.4.1.2; cited from earlier work
[11] = parameters: method as in protocol Section 1.4.1.2; details: 80 mg/kg/day, ref protocol Section 1.4.1.2, cited from earlier work
HIV-1 protease = system: HIV-1 protease; parameters: method as in protocol Section 1.4.1.2; details: ref protocol Section 1.4.1.2; cited from earlier work
[12] = system: human immunodeficiency virus type-2 (HIV-2) isolates; parameters: method as in protocol Section 1.4.1.2; details: active against 1 of 3 HIV-2 isolates; ref protocol Section 1.4.1.2; cited from earlier work
[13] = parameters: method as in protocol Section 1.4.1.2; details: ref protocol Section 1.4.1.2; cited from earlier work; remark: listed apart in the source
HIV-1 [14] = assay: Protocol-defined virologic failure and drug resistance testing (GenoSure MG, PhenoSense); format: in vivo, HIV-1-infected adults; details: through Week 24
Source text: PDVF was defined as either: (1) confirmed HIV-1 RNA ≥40 copies/mL at any time after prior confirmed suppression to <40 copies/mL; or (2) a confirmed >1 log10 copies/mL above the nadir level. Genotypic information required for screening was generated using the GenoSure® MG assay; genotypic information and phenotypic observations during the treatment period were generated using the PhenoSense® combination resistance test.

[15] = system: 23 isolates of subtype C viruses; parameters: method as in protocol Section 1.4.1.2; details: 23 subtype C isolates; ref protocol Section 1.4.1.2; read-out: EC50, median; cited from earlier work
[16] = parameters: method as in AI468001 and AI468002; details: same doses and formulation; ref AI468001 and AI468002; listed as BMS-955176; cited from earlier work

C=C(C)[C@@H]1CC[C@]2(NCCN3CCS(=O)(=O)CC3)CC[C@]3(C)[C@H](CC[C@@H]4[C@@]5(C)CC=C(c6ccc(C(=O)O)cc6)C(C)(C)[C@@H]5CC[C@]43C)[C@@H]12 [GSK3532795]
Increase in systemic exposure with dose ([1]; dose range 60–180 mg, with food and TDF/FTC): less than dose-proportional | Time at which median steady-state plasma concentrations reached peak ([1]; multiple doses 60, 120 or 180 mg with food and TDF/FTC): 4–5 hours post-dose | Developmental toxicity classification ([2]; mice, no maternal toxicity at any dose): selective developmental toxicant | Developmental NOAEL ([2]; mouse EFD): 45 mg/kg/day | Cumulative postimplantation losses ([2]; printed dose 100 mg/kg/day, […] in control litters): 11.5% | Reductions in fetal body weight relative to control values [2]: 5% | Time-dependent inhibition of CYPs (CYPs): No | Participants achieving HIV-1 RNA <40 copies/mL (HIV-1 [3]): 76–83% | Effect on exposures to ethinyl estradiol (EE) and norelgestromin (NGMN) [4]: reduced | Bioavailability lower relative to 80 mg SDD suspension [5]: approximately 23% | Impact of high fat meal on Cmax [5]: negligible impact | Increase in C24 with a high fat meal relative to fasted [5]: approximately 70% | Activity against RT, protease, and integrase inhibitor-resistant viruses ([6]; EC50 values similar to wild-type, ref protocol Section 1.4.1.2): retains complete activity | Activity against a panel of PI-resistant isolates from PI-treated subjects ([6]; major and minor PI-resistance determinants in protease and Gag): maintained activity | EC50 (HIV-1 clinical isolates; PBMCs, CRF01_AE subtype, N = 7, ref protocol Section 1.4.1.2): 77 nM | Fold less susceptible, CRF01_AE (clade AE) compared to clade B (HIV-1 clinical isolates; in vitro, ref protocol Section 1.4.1): 2-3 fold | Skin sensitization [7]: not a skin sensitizer | Metabolism in human in vitro systems (cytochrome P450 (CYP)3A4): primarily mediated via cytochrome P450 (CYP)3A4 | Protein binding [8]: 86% and 86.1% | P-gp inhibition (P-gp): No P-gp inhibition | Induction of CYP1A2, CYP2B6, or CYP3A4 (CYP1A2, CYP2B6, CYP3A4): not an inducer | Phototoxicity, mutagenicity, clastogenicity in vitro [9]: not phototoxic, mutagenic, or clastogenic | Reduction of antiviral activity (HIV-1 [10]): approximately 4 fold | AUC [11]: 3.26 gh/mL | Developmental toxicity classification ([11]; rabbits): not a developmental toxicant | Direct inhibition of HIV-1 protease (HIV-1 protease): does not directly inhibit HIV-1 protease | EC50 [12]: 15 nM | Route of elimination [13]: eliminated principally via metabolism followed by excretion in bile with little renal excretion | Tissue distribution [13]: distributed preferentially into the duodenum, liver, and lymph nodes with little penetration into the brain | Rate of protocol-defined virologic failure (PDVF) (HIV-1 [14]; 60 mg arm): 12% (6/50) | Rate of protocol-defined virologic failure (PDVF) (HIV-1 [14]; 120 mg arm): 10% (5/52) | Rate of protocol-defined virologic failure (PDVF) (HIV-1 [14]; 180 mg arm): 6% (3/51) | EC50 [15]: 5.6 nM | Exposures lower in HIV-1-infected subjects compared to healthy subjects [16]: 35%
